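1) Cells in 96-well plates. 2) Compound, 48 h, 5 concentrations. 3) Linear interpolation between surrounding doses. 4) Unreached endpoint = highest concentration. The concentration for full growth arrest is given as TGI.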
Assays:
Assay in all cases: NCI-60 cell line screen, 48 h
SNB-75 CNS = system: SNB-75 CNS
DU-145 prostate = system: DU-145 prostate
MDA-MB-435 = system: MDA-MB-435
T-47D breast = system: T-47D breast
M14 melanoma = system: M14 melanoma
A498 renal = system: A498 renal
A549 NSCLC = system: A549 NSCLC
OVCAR-4 ovarian = system: OVCAR-4 ovarian
NCI-H23 lung = system: NCI-H23 lung
SF-539 CNS = system: SF-539 CNS
SN12C renal = system: SN12C renal
HCT-116 colon = system: HCT-116 colon
OVCAR-3 ovarian = system: OVCAR-3 ovarian
786-0 renal = system: 786-0 renal
OVCAR-8 ovarian = system: OVCAR-8 ovarian
UO-31 renal = system: UO-31 renal
PC-3 prostate = system: PC-3 prostate
IGROV1 ovarian = system: IGROV1 ovarian
CCRF-CEM leukemia = system: CCRF-CEM leukemia
SK-OV-3 ovarian = system: SK-OV-3 ovarian
HCT-15 colon = system: HCT-15 colon
MOLT-4 leukemia = system: MOLT-4 leukemia
TK-10 renal = system: TK-10 renal
MDA-N = system: MDA-N
SF-295 CNS = system: SF-295 CNS
NCI-H522 lung = system: NCI-H522 lung
LOX IMVI melanoma = system: LOX IMVI melanoma
MALME-3M melanoma = system: MALME-3M melanoma
COLO 205 colon = system: COLO 205 colon
HOP-62 NSCLC = system: HOP-62 NSCLC
HT29 colon = system: HT29 colon
SK-MEL-28 melanoma = system: SK-MEL-28 melanoma
BT-549 breast = system: BT-549 breast
NCI-H460 lung = system: NCI-H460 lung
MDA-MB-231 breast = system: MDA-MB-231 breast
HCC-2998 colon = system: HCC-2998 colon
EKVX NSCLC = system: EKVX NSCLC
UACC-62 melanoma = system: UACC-62 melanoma
RXF 393 renal = system: RXF 393 renal
UACC-257 melanoma = system: UACC-257 melanoma
NCI/ADR-RES ovarian = system: NCI/ADR-RES ovarian
SK-MEL-5 melanoma = system: SK-MEL-5 melanoma
SF-268 CNS = system: SF-268 CNS
K-562 leukemia = system: K-562 leukemia
U251 CNS = system: U251 CNS
CAKI-1 renal = system: CAKI-1 renal
HS 578T breast = system: HS 578T breast
ACHN renal = system: ACHN renal
SNB-19 CNS = system: SNB-19 CNS
SW-620 colon = system: SW-620 colon
MCF7 breast = system: MCF7 breast
HOP-92 NSCLC = system: HOP-92 NSCLC
SK-MEL-2 melanoma = system: SK-MEL-2 melanoma
OVCAR-5 ovarian = system: OVCAR-5 ovarian
KM12 colon = system: KM12 colon
RPMI-8226 leukemia = system: RPMI-8226 leukemia
HL-60(TB) leukemia = system: HL-60(TB) leukemia
NCI-H226 lung = system: NCI-H226 lung

CSc1nc(C)c(CCCl)c(Cl)n1
TGI (SNB-75 CNS): > 100 µM
TGI (DU-145 prostate): > 100 µM
TGI (MDA-MB-435): > 100 µM
TGI (T-47D breast): > 100 µM
TGI (M14 melanoma): > 100 µM
TGI (A498 renal): > 100 µM
TGI (A549 NSCLC): > 100 µM
TGI (OVCAR-4 ovarian): > 100 µM
TGI (NCI-H23 lung): > 100 µM
TGI (SF-539 CNS): > 100 µM
TGI (SN12C renal): > 100 µM
TGI (HCT-116 colon): > 100 µM
TGI (OVCAR-3 ovarian): > 100 µM
TGI (786-0 renal): > 100 µM
TGI (OVCAR-8 ovarian): > 100 µM
TGI (UO-31 renal): > 100 µM
TGI (PC-3 prostate): > 100 µM
TGI (IGROV1 ovarian): > 100 µM
TGI (CCRF-CEM leukemia): > 100 µM
TGI (SK-OV-3 ovarian): > 100 µM
TGI (HCT-15 colon): > 100 µM
TGI (MOLT-4 leukemia): > 100 µM
TGI (TK-10 renal): > 100 µM
TGI (MDA-N): > 100 µM
TGI (SF-295 CNS): > 100 µM
TGI (NCI-H522 lung): 49.9 µM
TGI (LOX IMVI melanoma): > 100 µM
TGI (MALME-3M melanoma): > 100 µM
TGI (COLO 205 colon): > 100 µM
TGI (HOP-62 NSCLC): > 100 µM
TGI (HT29 colon): > 100 µM
TGI (SK-MEL-28 melanoma): > 100 µM
TGI (BT-549 breast): > 100 µM
TGI (NCI-H460 lung): > 100 µM
TGI (MDA-MB-231 breast): > 100 µM
TGI (HCC-2998 colon): > 100 µM
TGI (EKVX NSCLC): > 100 µM
TGI (UACC-62 melanoma): > 100 µM
TGI (RXF 393 renal): > 100 µM
TGI (UACC-257 melanoma): > 100 µM
TGI (NCI/ADR-RES ovarian): > 100 µM
TGI (SK-MEL-5 melanoma): > 100 µM
TGI (SF-268 CNS): > 100 µM
TGI (K-562 leukemia): > 100 µM
TGI (U251 CNS): > 100 µM
TGI (CAKI-1 renal): > 100 µM
TGI (HS 578T breast): > 100 µM
TGI (ACHN renal): > 100 µM
TGI (SNB-19 CNS): > 100 µM
TGI (SW-620 colon): > 100 µM

CC/C=C/C(/C=C/C[C@]1(CC)C[C@H](CC)[C@H](CC(=O)O)OO1)CC (stereo partly specified)
TGI (SNB-75 CNS): 15.4 µM
TGI (MCF7 breast): 6.62 µM
TGI (DU-145 prostate): 4.36 µM
TGI (MDA-MB-435): 4.46 µM
TGI (T-47D breast): > 23.1 µM
TGI (M14 melanoma): 26.5 µM
TGI (A498 renal): 28.9 µM
TGI (A549 NSCLC): 3.99 µM
TGI (OVCAR-4 ovarian): 3 µM
TGI (NCI-H23 lung): 6.04 µM
TGI (SF-539 CNS): 4.07 µM
TGI (SN12C renal): 14.7 µM
TGI (HCT-116 colon): 6.81 µM
TGI (HOP-92 NSCLC): 4.72 µM
TGI (OVCAR-3 ovarian): 4.17 µM
TGI (786-0 renal): 3.32 µM
TGI (OVCAR-8 ovarian): 13.1 µM
TGI (UO-31 renal): 0.947 µM
TGI (PC-3 prostate): 3.69 µM
TGI (SK-MEL-2 melanoma): 9.11 µM
TGI (IGROV1 ovarian): 0.899 µM
TGI (CCRF-CEM leukemia): 1.95 µM
TGI (SK-OV-3 ovarian): 19.2 µM
TGI (HCT-15 colon): 8.97 µM
TGI (TK-10 renal): 3.69 µM
TGI (MDA-N): 3.71 µM
TGI (SF-295 CNS): 5.02 µM
TGI (NCI-H522 lung): 3.44 µM
TGI (LOX IMVI melanoma): 1.76 µM
TGI (MALME-3M melanoma): 29.3 µM
TGI (COLO 205 colon): 3.86 µM
TGI (HOP-62 NSCLC): 3.5 µM
TGI (OVCAR-5 ovarian): 7.61 µM
TGI (HT29 colon): 3.98 µM
TGI (SK-MEL-28 melanoma): 7.41 µM
TGI (BT-549 breast): 18.3 µM
TGI (NCI-H460 lung): 4.25 µM
TGI (MDA-MB-231 breast): 14.3 µM
TGI (EKVX NSCLC): 3.77 µM
TGI (UACC-62 melanoma): 12.1 µM
TGI (RXF 393 renal): 6.3 µM
TGI (UACC-257 melanoma): 28.9 µM
TGI (NCI/ADR-RES ovarian): 4.79 µM
TGI (SK-MEL-5 melanoma): 10.1 µM
TGI (SF-268 CNS): 9.57 µM
TGI (KM12 colon): 3.68 µM
TGI (K-562 leukemia): > 29.8 µM
TGI (U251 CNS): 3.36 µM
TGI (CAKI-1 renal): 4.82 µM
TGI (RPMI-8226 leukemia): 4.43 µM
TGI (HS 578T breast): 4.85 µM
TGI (HL-60(TB) leukemia): 4.76 µM
TGI (ACHN renal): 3.61 µM
TGI (SNB-19 CNS): 12 µM
TGI (NCI-H226 lung): 57.9 µM
TGI (SW-620 colon): 5.1 µM
